According to patent publication US3941842A, “P,P'-Disubstituted α-trichloromethylbenzylanilines” (priority 1972, dated 1976):

How the values were obtained:
[1] = system: multifunction oxidase (MFO) enzymes; settings: background; cited from earlier work
[2] = Model ecosystem: distribution, ecological magnification and Biodegradability Index; settings: 33 days, 5.0 mg 3H-ethoxyaniline to Sorghum
From the text: After the amounts of the various metabolites have been calculated and a determination is made as to which of the metabolites are to be designated as "polar" and which are to be designated as "non-polar", a Biodegradability Index (amount of polar metabolites/amount of nonpolar metabolites) may be calculated. Remembering that nonpolar compounds, such as DDT are readily soluble in the fatty tissues, but are not readily soluble in water based solutions, and that the cell fluid is essentially a water based solution, the lower the Biodegradability Index, the lower the amount of biodegradability of the compound. The higher the amount of polarity, the greater the likelihood that the polar compound will dissolve in water, a very polar compound, and be eliminated from the cell.
The environmental fate of any new pesticide is a factor of paramount importance in determining how and where it might be used. The behavior of ^3 H-α-trichloromethyl-p-ethoxybenzyl-p-ethoxyaniline has been studied by the model ecosystem technique following application of 5.0 mg. of labeled compound to Sorghum plants. A summary of
metabolites from the organisms in the model ecosystem after 33 days were
identified by cochromatography with standards of known constitution, by
appropriate chromogenic reagents, and by high-resolution mass
spectrometry. The data of Table IV indicate the O-dealkylation of
Food Chem. 1 (1972). Ethoxychlor was found in the snail to 58.6 ppm and in the fish to 0.92 ppm, along with its ethylene and the mono- and bis-phenols formed by O-dealkylation. The ecological magnification (E.M.) of ethoxychlor, defined as the ratio of the parent material in the fish to the concentration in the water, was 1500-fold as compared with an E.M. of only 0.7-fold for the ethoxyaniline.
Comparing the Biodegradability Indices (B.I.=total recovered polar metabolites/total recovered nonpolar metabolites) the values are 0.44 for ethoxychlor and 2.0 for ethoxyaniline.

[3] = system: Female housefly; experiment: Metabolism of 3H-ethoxyaniline by female RSP housefly; settings: 24 hr after topical 1.0 μg 3H-ethoxyaniline (compound III)
Protocol: (§1) The compounds of the present invention were tested for insecticidal activity by standard methods, and compared with the insecticidal activities of DDT and symmetrical analogs of DDT, such methoxychlor. Toxicological methods for the determination of the topical LD50 values to adult female SNAIDM and RSP houseflies, Musca domestica L. and to Phormia regina, and LC50 values to Culex pipiens quinquefasciatus Say, and Anopheles albimanus Weid mosquitoes were described by Metcalf el al., 44 Bull. World Health Org. 363 (1971). The methods for evaluation of metabolism by mouse liver homogenate and by female RSP housefly and salt-marsh caterpillar larvae Estigmene acrea Drury, were described by Kapoor et al., 18 J. Agr. Food Chem. 1145 (1970). The techniques for model eocsystem evluation were described by Metcalf et al., 5 J. Environ. Sci. Tech. 709 (1971).
(§2) The biodegradability of an insecticide may be measured by administering measured doses of a tritium labeled test insecticide to a subject. Some time later the subject is sacrificed, liquefied, and a sample of the liquefied insect is placed on a thin layer chromotagraphy (tlc) plate. The plate is developed in a suitable solvent and Rf values of the various compounds contained in the sample are measured against known Rf values of previously synthesized theoretical metabolic breakdown products. The amount of each metabolite present may thus be measured by measuring the ^3 H at each separately resolved spot on the tlc plate. A permanent record may be made by exposing film to the plate to form a ratioautograph.

[4] = system: Salt-marsh caterpillar; experiment: Metabolism of 3H-ethoxyaniline by salt-marsh caterpillar larvae; settings: 24 hr after feeding 0.5 mg 3H-ethoxyaniline (compound III)
Protocol: as §1, §2

[5] = system: Musca domestica Snaidm; experiment: Topical LD50 to adult female SNAIDM houseflies; settings: for LD50: Musca domestica, read-out: Topical LD50, Musca domestica Snaidm, Alone; for LD50 / Topical LD50, Musca domestica Snaidm, with pb: topical; for Topical LD50, Musca domestica Snaidm, with pb: SNAIDM strain, synergized with piperonyl butoxide; for SR, Musca domestica Snaidm: synergistic ratio: LD50 alone/LD50 synergized with piperonyl butoxide
Protocol: as §1
(§3) Since piperonyl butoxide serves to block the action of MFO, the synergized LD50 values express the intrinsic toxicity of the compounds. With the detoxifying action of MFO enzymes blocked, the intrinsic toxicity of the compounds can thus be measured.

[6] = system: Culex fatigans larvae; experiment: LC50 to Culex fatigans larvae; type: in vivo, Culex pipiens quinquefasciatus Say
From the text: (§4) World Health Org. 363 (1971). […] Food Chem. 1145 (1970). […] Sci. Tech. 709 (1971). The results are detailed in Table II. ##SPC1##

[7] = system: Musca domestica (SNAIDM and RSP strains), Phormia regina, Culex fatigans and Anopheles albimanus; experiment: Insecticidal activity over the test insects (Table II, summarised in words); type: in vivo; settings: for insecticidal effectiveness / toxicity (in words): overall, test insects of Table II
Protocol: as §1, §3

[8] = system: Musca domestica Rsp; experiment: Topical LD50 to adult female RSP houseflies; settings: for LD50: Musca domestica, read-out: Topical LD50, Musca domestica Rsp, Alone; for LD50 / Topical LD50, Musca domestica Rsp, with pb: topical; for Topical LD50, Musca domestica Rsp, with pb: RSP strain, synergized with piperonyl butoxide; for SR, Musca domestica Rsp: synergistic ratio: LD50 alone/LD50 synergized with piperonyl butoxide
Protocol: as §1, §3

[9] = system: Phormia regina; experiment: whole plant or invertebrate; settings: for LD50: Phormia regina, read-out: Topical LD50, Phormia regina, Alone; for LD50 / Topical LD50, Phormia regina, with pb: topical; for Topical LD50, Phormia regina, with pb: synergized with piperonyl butoxide
Protocol: as §1, with “363 (1971).” left out, “Food Chem. 1145 (1970).” left out, “Tech.” for “Tech. 709 (1971).”
as §3

[10] = system: Anopheles albimanus larvae; experiment: LC50 to Anopheles albimanus larvae; type: in vivo, Anopheles albimanus Weid
From the text: as §4

Compound | LD50 [5] [mg/kg] | Topical LD50, Musca domestica Snaidm, with pb [5] [μg per g] | SR, Musca domestica Snaidm [5] | LC50 Culex fatigans larvae [6] [ppm] | insecticidal effectiveness / toxicity (in words) [7] | LD50 [8] [mg/kg] | Topical LD50, Musca domestica Rsp, with pb [8] [μg per g] | SR, Musca domestica Rsp [8] | LD50 [9] [mg/kg] | Topical LD50, Phormia regina, with pb [9] [μg per g] | LC50 Anopheles albimanus larvae [10] [ppm] | also measured
Clc1ccc(C(c2ccc(Cl)cc2)C(Cl)Cl)cc1 [DDD, 1,1-dichloro-2,2-bis(p-chlorophenyl)ethane] |  |  |  |  |  |  |  |  |  |  |  | susceptibility to MFO enzymes (in words) [1]: do not function on DDT and its metabolic derivatives DDE and DDD
ClC(Cl)=C(c1ccc(Cl)cc1)c1ccc(Cl)cc1 [DDE, 1,1-dichloro-2,2-bis(p-chlorophenyl) ethylene] |  |  |  |  |  |  |  |  |  |  |  | susceptibility to MFO enzymes (in words) [1]: do not function on DDT and its metabolic derivatives DDE and DDD
Oc1ccc(NC(c2ccc(O)cc2)C(Cl)(Cl)Cl)cc1 (stereo not drawn) [HOC6 H4 NHCH(CCl3)C6 H4 OH, α-trichloromethyl-p-hydroxybenzyl-p-hydroxyaniline] |  |  |  |  |  |  |  |  |  |  |  | Concentration of ethoxyaniline equivalents in Gambusia (fish) [2]: 0.03 ppm; Concentration of ethoxyaniline equivalents in Physa (snail) [2]: 1.512 ppm; Female housefly, percent 3H in Excreta [3]: 5.7%; Female housefly, percent 3H in Homogenate [3]: 8.4%
CCOc1ccc(C(=O)C(Cl)Cl)cc1 [C2 H5 OC6 H4 C(O)CHCl2, p-ethoxydichloroacetophenone] |  |  |  |  |  |  |  |  |  |  |  | Concentration of ethoxyaniline equivalents in Gambusia (fish) [2]: 0.28 ppm; Concentration of ethoxyaniline equivalents in Oedogonium (algae) ([2]; Oedogonium (algae)): 0.3 ppm; Concentration of ethoxyaniline equivalents in Physa (snail) [2]: 3.542 ppm; Salt-marsh caterpillar, percent 3H in Excreta ([4]; excreta): 3.1%; Salt-marsh caterpillar, percent 3H in Homogenate ([4]; homogenate): 8.7%; Female housefly, percent 3H in Excreta [3]: 9.7%; Female housefly, percent 3H in Homogenate [3]: 10.4%
CCOc1ccc(C(Nc2ccccc2OCC)C(Cl)(Cl)Cl)cc1 (stereo not shown) [XXI] | > 500 | 110 | > 5 | > 1.0 | Toxicity was greatly decreased | > 500 | 140 | > 3.5 | > 250 | > 250 | > 1.0 | 
COc1ccc(NC(c2ccc(Cl)cc2)C(Cl)(Cl)Cl)cc1 (stereo not shown) [VI] | 39 | 6.5 | 6.0 | 0.44 |  | 49 | 14.0 | 3.4 | 128 | 80 | 0.37 | SR values (in words) ([7]; synergism by piperonyl butoxide): higher SR values; SR, Phormia regina ([9]; synergistic ratio: LD50 alone/LD50 synergized with piperonyl butoxide): 1.6
COc1ccc(NC(c2ccc(N(C)C)cc2)C(Cl)(Cl)Cl)cc1 (stereo not shown) [XXV] | 310 | 16.0 | 19.4 | 0.70 | Toxicity was also substantially decreased | > 500 | 13.5 | > 37 | > 250 | 85.0 | 1.0 | 
CCOc1ccc(C(Nc2ccc(Cl)cc2)C(Cl)(Cl)Cl)cc1 (stereo not drawn) [VII, α-trichloromethyl1p-ethoxybenzyl-p-chloroaniline] | 19 | 10.5 | 1.8 | 0.032 | only slightly less active than compound XI | 31 | 13.5 | 2.3 | 24.5 | 20.0 | 0.060 | 
CCOc1ccc(NC(c2ccccc2OCC)C(Cl)(Cl)Cl)cc1 (stereo not shown) [XX] | > 500 | 500 |  | > 1.0 | Toxicity was greatly decreased | > 500 | > 500 |  | > 250 | > 250 | > 1.0 | 
Cc1ccc(NC(c2ccc(C)cc2)C(Cl)(Cl)Cl)cc1 (stereo not shown) [IV] | 43 | 5.0 | 8.6 | 0.18 | one of the more insecticidal compounds | 43 | 6.5 | 6.6 | 33.7 | 21.0 | 0.21 | 
CN(C)c1ccc(C(Nc2ccc([N+](=O)[O-])cc2)C(Cl)(Cl)Cl)cc1 (stereo not shown) [XXVI] | > 500 | 120 | > 4 | 0.38 | Toxicity was also substantially decreased | > 500 | 500 |  | > 250 | > 250 | > 1.0 | 
